Measured values: ChEMBL document CHEMBL6120944, “SAR Analysis of Novel Coxsackie virus A9 Capsid Binders” (J Med Chem, 2024)
Values after ≈ are worked out from the molar mass of the structure shown. Active and inactive are the calls of the source. The rule behind the calls is not given here.

Experiments:
[1] = test system: Coxsackievirus A9; assay: Antiviral activity against Coxsackievirus A9 infected in human A549 cells assessed as inhibition of virus-induced cytopathic effect pre-infected with virus for 1 hr followed by compound addition and measured after 24 hrs by crystal violet staining based analysis; format: functional, organism-based; conditions: Enterovirus B
[2] = Selectivity index, ratio of CC50 for cytotoxicity against human A549 cells assessed as cell viability to EC50 for antiviral activity against Coxsackievirus A9 infected in human A549 cells assessed as inhibition of virus-induced cytopathic effect; format: toxicity, cell-based; conditions: read-out: Ratio CC50/EC50
[3] = Distribution coefficient, log D of the compound by HPLC analysis; format: physicochemical; conditions: octanol/water
[4] = Kinetic solubility of compound by HPLC analysis; format: physicochemical; conditions: read-out: Kinetic_solubility
[5] = Cytotoxicity against human A549 cells assessed as cell viability; format: toxicity, cell-based
[6] = test system: Coxsackievirus A9; assay: Antiviral activity against Coxsackievirus A9 infected in human A549 cells assessed as increase in cell viability at 10 uM pre-infected with virus for 1 hr followed by compound addition and measured after 24 hrs by crystal violet staining based analysis; format: functional, organism-based
[7] = Metabolic stability in human liver microsome assessed as half life preincubated with compound for 10 mins followed by NADP addition and measured after 60 mins by LC-MS/MS analysis; format: ADME; conditions: liver microsomes, time 70 min
[8] = Metabolic stability in human liver microsome assessed as intrinsic clearance preincubated with compound for 10 mins followed by NADP addition and measured after 60 mins by LC-MS/MS analysis; format: ADME; conditions: liver microsomes, time 70 min, read-out: CLH
[9] = Metabolic stability in CD-1 mouse liver microsome assessed as intrinsic clearance preincubated with compound for 10 mins followed by NADP addition and measured after 60 mins by LC-MS/MS analysis; format: ADME; conditions: liver microsomes, time 70 min, read-out: CLH
[10] = Metabolic stability in CD-1 mouse liver microsome assessed as half life preincubated with compound for 10 mins followed by NADP addition and measured after 60 mins by LC-MS/MS analysis; format: ADME; conditions: liver microsomes, time 70 min
[11] = test system: Coxsackievirus A9; assay: Antiviral activity against Coxsackievirus A9 infected in human A549 cells assessed as increase in cell viability at 100 uM pre-infected with virus for 1 hr followed by compound addition and measured after 24 hrs by crystal violet staining based analysis relative to control; format: functional
[12] = test system: Coxsackievirus A9; assay: Antiviral activity against Coxsackievirus A9 infected in human A549 cells assessed as increase in cell viability at 5 uM pre-infected with virus for 1 hr followed by compound addition and measured after 24 hrs by crystal violet staining based analysis relative to control; format: functional
[13] = test system: Coxsackievirus A9; assay: Antiviral activity against Coxsackievirus A9 infected in human A549 cells assessed as inhibition of virus-induced cytopathic effect at 5 uM pre-infected with virus for 1 hr followed by compound addition and measured after 24 hrs by crystal violet staining based analysis relative to control; format: functional; design: scale not given: the % may be the effect or the level left

Row | Compound | EC50 [1] [µM] | selectivity ratio [2] | logD [3] | solubility kinetic [4] [µg/mL] | CC50 [5] [µM] | Activity [6] | half-life [7] [min] | microsomal CLint [8] [µL/min/mg] | microsomal CLint [9] [µL/min/mg] | half-life [10] [min] | Activity [11] [%] | Activity [12] [%] | Activity [13] [%]
1 | CN1CCN(Cc2ccc(NC(=O)c3ccc(Cl)cc3)cc2)CC1 | 7.98 | > 125 | 2.27 | 220 (≈ 640 µM) | > 1000 |  |  |  |  |  |  |  | 
2 | CN1CCN(Cc2ccc(NCc3ccc(C(F)(F)F)cc3)cc2)CC1 | 1.06 | 74.1 |  | 210 (≈ 578 µM) | 78.6 | Active | 33.7 | 41.2 | 108 | 12.8 | ~60 |  | 
3 | CN1CCN(Cc2ccc(NCc3ccc(Cl)cc3)cc2)CC1 | 1.27 | 90.1 | 2.34 | 220 (≈ 667 µM) | 114 | Active | 20.9 | 66.4 | 199 | 7 |  | 90 | 100
4 | CN1CCN(Cc2ccc(NCc3ccc(F)cc3)cc2)CC1 | 2.34 | 155 | 1.94 | 200 (≈ 638 µM) | 364 | Active |  |  |  |  | ~70 |  | 
5 | CN1CCN(Cc2ccc(NCc3ccc(F)c(F)c3)cc2)CC1 | 4.11 | 52.2 | 1.98 | 220 (≈ 664 µM) | 215 | Active |  |  |  |  | ~70 |  | 
6 | COc1ccccc1CNc1ccc(CN2CCN(C)CC2)cc1 | 7.84 | 45.9 |  |  | 360 | Active |  |  |  |  | 40 |  | 
7 | CN1CCN(Cc2ccc(NCc3cccc(F)c3)cc2)CC1 | 5.84 | 38 | 1.93 | 220 (≈ 702 µM) | 222 | Active |  |  |  |  | ~70 |  | 
8 | CN1CCN(Cc2ccc(NCc3ccc(F)cc3F)cc2)CC1 | 6.8 | 29.5 | 1.9 | 240 (≈ 724 µM) | 201 | Active |  |  |  |  | ~70 |  | 
9 | CN1CCN(Cc2ccc(NC(=O)c3ccc(-c4ccccc4)cc3)cc2)CC1 | 1.07 | 134 |  | 260 (≈ 674 µM) | 144 |  |  |  |  |  |  |  | 
10 | CN1CCN(Cc2ccc(NCc3ccccc3F)cc2)CC1 | 6.66 | 52.8 | 2.05 | 260 (≈ 830 µM) | 351 | Active |  |  |  |  | ~70 |  | 
11 | CN1CCN(Cc2ccc(NCc3ccc(-c4ccccc4)cc3)cc2)CC1 | 0.64 | 24.7 |  | 210 (≈ 565 µM) | 15.8 | Active |  |  |  |  |  | 60 | 100
12 | COc1ccc(CNc2ccc(CN3CCN(C)CC3)cc2)cc1 | 10.5 | 36 | 1.81 | 210 (≈ 645 µM) | 376 | Active |  |  |  |  | 60 |  | 
